From patent US7169411B1, “Composition for delivery of biological agents and methods for the preparation thereof” (The University of Nebraska Board of Regents, priority 1997, dated 2007)

Experiment: Potentiometric binding isotherms of surfactants to polyethylene oxide-block-poly(sodium methacrylate)
Assay type: physicochemical
Details: FIG. 1
Excerpt: While not wishing to be bound by any particular theory, it is believed that the above-described surfactants and block copolymers of opposite charge form stable complexes due to cooperative binding. (See, e.g., Goddard, In Interactions of Surfactants with Polymers and Proteins. Goddard and Ananthapadmanabhan, Eds., pp. 171 et seq., CRC Press, Boca Raton, Ann Arbor, London, Tokyo, 1992). Cooperative binding occurs in the sense that binding of surfactant molecules to the block copolymer is enhanced by the presence of other molecules of the same or a different surfactant already bound to the same copolymer. According to the cooperative binding mechanism which is believed to underlie this invention, surfactant binds electrostatically to the oppositely charged P-type segments of the block copolymer to form supramolecular complexes. […]
B. The binding isotherms of cetylpyridinium bromide (Sigma Co.) and dodecylpyridinium bromide (Sigma Co.) with the polyethylene oxide-block-poly(sodium methacrylate) copolymer were determined potentiometrically by using the following ion-selective electrode: Ag/AgCl | 1 M NH4NO3 agar bridge | reference solution (surfactant, 2.5·10^−4 M) | PVC membrane | sample solution | 1 M NH4NO3 agar bridge | Ag/AgCl. […] The electromotive force (emf) of the cell was measured with a digital Radiometer pHM-83 pH-meter. […]

CCCCCCCCCCCC[n+]1ccccc1.[Br-] [dodecylpyridinium bromide]
stability of the complex with the block copolymer relative to cetylpyridinium bromide: decreases the stability of the complex more than ten-fold
